Measurements taken from patent US12077503B2, “Substituted cyclic amides and their use as herbicides” (FMC CORPORATION, priority 2015, dated 2024).

Tests used:
Format in all cases: in vivo
Kochia (Kochia scoparia) [1] = test: Test A preemergence; settings: for Plant response rating, Kochia: preemergence
Summary of the method: (§1)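 Treatment is preemergence as a directed soil spray after planting, or postemergence at the one- to two-leaf stage, with test chemical in a non-phytotoxic solvent mixture plus surfactant. Plants stay in the greenhouse about 10 d before visual injury scoring on a 0 to 100 scale versus untreated controls.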

[2] = test system: barnyardgrass (Echinochloa crus-galli); test: Test A preemergence; settings: for Plant response rating, Barnyardgrass: preemergence
Summary of the method: as §1

[3] = test system: giant foxtail (Setaria faberii); test: Test A preemergence; settings: for Plant response rating, Foxtail, Giant: preemergence
Summary of the method: as §1

[4] = test system: pigweed (Amaranthus retroflexus); test: Test A preemergence; settings: for Plant response rating, Pigweed: preemergence
[5] = test system: ragweed (common ragweed, Ambrosia elatior); test: Test A preemergence; settings: for Plant response rating, Ragweed: preemergence
Summary of the method: as §1

[6] = test system: ryegrass, Italian (Italian ryegrass, Lolium multiflorum); test: Test A preemergence; settings: for Plant response rating, Ryegrass, Italian: preemergence
Summary of the method: as §1

[7] = test system: Galium (catchweed bedstraw, Galium aparine); test: Test A postemergence; settings: postemergence
Summary of the method: as §1

Kochia (Kochia scoparia) [8] = test: Test A postemergence; settings: postemergence
Summary of the method: as §1

[9] = test system: barnyardgrass (Echinochloa crus-galli); test: Test A postemergence
Summary of the method: as §1

[10] = test system: blackgrass (Alopecurus myosuroides); test: Test A postemergence
Summary of the method: as §1

corn (Zea mays) = test: Test A postemergence; settings: postemergence
Summary of the method: as §1

[11] = test system: giant foxtail (Setaria faberii); test: Test A postemergence; settings: postemergence
Summary of the method: as §1

[12] = test system: pigweed (Amaranthus retroflexus); test: Test A postemergence; settings: postemergence
Summary of the method: as §1

[13] = test system: ragweed (common ragweed, Ambrosia elatior); test: Test A postemergence; settings: postemergence
Summary of the method: as §1

[14] = test system: ryegrass, Italian (Italian ryegrass, Lolium multiflorum); test: Test A postemergence; settings: postemergence
Summary of the method: as §1

[15] = test system: wheat (Triticum aestivum); test: Test A postemergence; settings: postemergence
Summary of the method: as §1

[16] = test system: barnyardgrass (Echinochloa crus-galli); test: Test B flooded paddy test; settings: Flood, 500 g ai/ha; 0 to 100 scale where 0 is no effect and 100 is complete control; 13 to 15 d
Summary of the method: (§2)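 Rating scale 0–100 (visual, vs untreated controls) after a 13–15 d greenhouse period; application to the flood layer, 3 cm above soil and maintained; plants at 2-leaf stage when treated.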

[17] = test system: ducksalad (Heteranthera limosa); test: Test B flooded paddy test; settings: Flood, 500 g ai/ha; 0 to 100 scale where 0 is no effect and 100 is complete control; 13 to 15 d
Summary of the method: as §2

rice (Oryra sativa) = test: Test B flooded paddy test; settings: Flood, 500 g ai/ha; 0 to 100 scale where 0 is no effect and 100 is complete control; 13 to 15 d
Summary of the method: as §2

[18] = test system: sedge, umbrella (small-flower umbrella sedge, Cyperus difformis); test: Test B flooded paddy test; settings: Flood, 500 g ai/ha; 0 to 100 scale where 0 is no effect and 100 is complete control; 13 to 15 d
Summary of the method: as §2

[19] = 125 g ai/ha, visual rating after approx. 10 d, 0 to 100 scale where 0 is no effect and 100 is complete control
[20] = 500 g ai/ha, 0 to 100 scale, 0 = no effect, 100 = complete control
[21] = 125 g ai/ha, visual injury after approximately 10 d, 0 to 100 scale (0 no effect, 100 complete control)
[22] = 500 g ai/ha, visual injury, 0 to 100 scale (0 no effect, 100 complete control), approx. 10 d
[23] = 125 g ai/ha, postemergence, visual injury after approximately 10 d, 0 to 100 scale (0 no effect, 100 complete control)
[24] = 500 g ai/ha, postemergence, visual injury, 0 to 100 scale (0 no effect, 100 complete control), approx. 10 d
[25] = 125 g ai/ha, 0 to 100 scale (0 no effect, 100 complete control)
[26] = Preemergence, 500 g ai/ha, 0 is no effect, 100 is complete control
[27] = 125 g ai/ha, visual injury rating on 0 to 100 scale (0 no effect, 100 complete control), approx. 10 d
[28] = 500 g ai/ha, 0 to 100 scale, 0 no effect, 100 complete control
[29] = 500 g ai/ha, postemergence, 0 to 100 scale, 0 no effect, 100 complete control
[30] = Postemergence, 125 g ai/ha, visual injury, 0 to 100 scale (0 no effect, 100 complete control), approx. 10 d

CC(=O)c1ccccc1NC(=O)C1C(=O)NCC1c1cccc(C(F)(F)F)c1 (racemic) [Compound 706]
15: Plant response rating, Rice (rice (Oryra sativa))
80: Plant response rating, Foxtail, Giant [3, 20]
30: Plant response rating, Foxtail, Giant [11, 22]
70: Plant response rating, Barnyardgrass [2, 20]
0: Plant response rating, Kochia (Kochia (Kochia scoparia) [1]; [19]) | Plant response rating, Kochia (Kochia (Kochia scoparia) [1]; [20]) | Plant response rating, Barnyardgrass [2, 19] | Plant response rating, Foxtail, Giant [3, 19] | Plant response rating, Pigweed [4, 19] | Plant response rating, Pigweed [4, 20] | Plant response rating, Ragweed [5, 19] | Plant response rating, Ragweed [5, 20] | Plant response rating, Ryegrass, Italian [6, 19] | Plant response rating, Ryegrass, Italian [6, 20] | Plant response rating, Galium [7, 21] | Plant response rating, Galium [7, 22] | Plant response rating, Kochia (Kochia (Kochia scoparia) [8]; [21]) | Plant response rating, Kochia (Kochia (Kochia scoparia) [8]; [22]) | Plant response rating, Barnyardgrass [9, 23] | Plant response rating, Blackgrass [10, 23] | Plant response rating, Blackgrass [10, 24] | Plant response rating, Corn (corn (Zea mays); [21]) | Plant response rating, Corn (corn (Zea mays); [22]) | Plant response rating, Foxtail, Giant [11, 21] | Plant response rating, Pigweed [12, 21] | Plant response rating, Pigweed [12, 22] | Plant response rating, Ragweed [13, 21] | Plant response rating, Ragweed [13, 22] | Plant response rating, Ryegrass, Italian [14, 21] | Plant response rating, Ryegrass, Italian [14, 22] | Plant response rating, Wheat [15, 21] | Plant response rating, Wheat [15, 22] | Plant response rating, Barnyardgrass [16] | Plant response rating, Ducksalad [17] | Plant response rating, Sedge, Umbrella [18]
50: Plant response rating, Barnyardgrass [9, 24]

O=C1NCC(c2cccc(OCC(F)F)c2)C1C(=O)Nc1ccc(F)cc1F (stereo not drawn) [Compound 388]
30: Plant response rating, Galium [7, 28] | Plant response rating, Barnyardgrass [9, 30]
75: Plant response rating, Ducksalad [17]
70: Plant response rating, Barnyardgrass [9, 29]
10: Plant response rating, Blackgrass [10, 30]
80: Barnyardgrass plant response rating (0 to 100 scale) [2, 26] | Plant response rating, Foxtail, Giant [3, 25] | Plant response rating, Foxtail, Giant [11, 28]
60: Plant response rating, Barnyardgrass [2, 25]
50: Plant response rating, Blackgrass [10, 29] | Foxtail, Giant plant response rating [11, 27]
90: Foxtail, Giant plant response rating (0 to 100 scale) [3, 26]
0: Plant response rating, Kochia (Kochia (Kochia scoparia) [1]; [25]) | Kochia plant response rating (0 to 100 scale) (Kochia (Kochia scoparia) [1]; [26]) | Plant response rating, Pigweed [4, 25] | Pigweed plant response rating (0 to 100 scale) [4, 26] | Plant response rating, Ragweed [5, 25] | Ragweed plant response rating (0 to 100 scale) [5, 26] | Plant response rating, Ryegrass, Italian [6, 25] | Ryegrass, Italian plant response rating (0 to 100 scale) [6, 26] | Galium plant response rating [7, 27] | Kochia plant response rating (Kochia (Kochia scoparia) [8]; [27]) | Plant response rating, Kochia (Kochia (Kochia scoparia) [8]; [28]) | Corn plant response rating (corn (Zea mays); [27]) | Plant response rating, Corn (corn (Zea mays); [28]) | Pigweed plant response rating [12, 27] | Plant response rating, Pigweed [12, 28] | Ragweed plant response rating [13, 27] | Plant response rating, Ragweed [13, 28] | Ryegrass, Italian plant response rating [14, 27] | Plant response rating, Ryegrass, Italian [14, 28] | Wheat plant response rating [15, 27] | Plant response rating, Wheat [15, 28] | Plant response rating, Barnyardgrass [16] | Plant response rating, Rice (rice (Oryra sativa)) | Plant response rating, Sedge, Umbrella [18]
